From publication doi:10.1101/2025.07.11.664294 (bioRxiv, 2025)

Legend:
U87MG glioblastoma cells = test: Wound-healing scratch assay; type: cell-based, human; conditions: 50 μM peptide, 24 h, mitomycin C 3 μg/ml; wound closure by ImageJ
Protocol: The U87MG GBM cell line (U-87 MG, ATCC® HTB-14) was cultured in Dulbecco’s Modified Eagle Medium (DMEM) and appropriate growth factors at 37°C in a humidified 5% CO2 atmosphere. Cells were seeded at 40,000 cells per well in 96-well plates and allowed to adhere overnight. Then, mitomycin C (3 μg/ml) was added to inhibit further cell replication, and 50 μM Ctx and its analogs were added. Untreated wells served as a control. Wounds were created by manually scratching the cell monolayer with a 200 μL multi-channel pipette tip, and plates were analyzed at 0 h and 24 h time points using the MetaXpress image acquisition software (Molecular Devices, San Jose, CA). The ImageJ Ver. 1.54f program (NIH (National Institutes of Health) was used for image analysis. Wound closure was quantified using the Wound_Healing_Size_tool_plugin., analyzing the percentage of wound area covered by migrating cells. To determine significance, statistical analysis was performed using appropriate methods (t-test or ANOVA) using GraphPad Prism software, version 10.0.3.

MMP-2 [1] = test: MMP-2 inhibition assay (Enzo MMP-2 drug discovery kit); type: biochemical, human; conditions: NNGH positive control
Protocol: The MMP-2 inhibition assay was performed using the Enzo Life Sciences MMP-2 drug discovery kit. and the quenched fluorogenic substrate OmniMMP RED. Reference substrate was diluted to a final concentration of 5 μM, while the MMP-2 enzyme was diluted to 58 mU/μL, and the N-Isobutyl-N-(4-methoxyphenylsulfonyl)glycyl hydroxamic acid (NNGH) inhibitor was diluted to a concentration of 1/200 in assay buffer. […] The assay was performed using a black 96-well microplate. Fluorescence was measured at excitation/emission wavelengths of 545/576 nm, with a cutoff at 570 nm using Gen5 microplate reader (BioTeK, Shoreline, WA). Baseline fluorescence was recorded before adding NNGH inhibitor which was used as a positive control for MMP-2 inhibition. Reaction mixtures in the plate were incubated at 37 °C for 10 min, and fluorescence was measured at 10 min intervals for the first 30 min, then at 30 min intervals until 2 h had elapsed. Percentage of inhibition of MMP-2 activity by Ctx and its analogs was calculated as percent of control. Statistical analysis was performed using ANOVA with GraphPad Prism software, version 10.0.3.

recombinant MMP-2 = test: Differential scanning fluorimetry (DSF); type: binding, human; conditions: 1 μM MMP-2, 30 μM (Ctx) or 50 μM (P75 and P76) peptide, PBS pH 7.1, SYPRO-orange, average and SD of n ≥ 3
Protocol: The melting temperatures (Tm) of recombinant MMP-2 and its complexes with peptides were ascertained using BioRad CFX384 Touch real-time PCR (Hercules, CA, USA). The experiments were performed as previously described. The unfolding of the protein was detected using the fluorescent SYPRO-orange dye (Invitrogen, Carlsbad, CA, USA). MMP-2 and prospective ligand peptides were dissolved in 7.1 pH phosphate buffered saline (154 mM NaCl, 5.6 mM Na2PO4, 1.1mM KH2PO4), and the reaction mixture was made to a final concentration of 1 μM of protein, either 30 μM (Ctx) or 50 μM (P75 and P76) of peptide, and 1000x dilution of the SYPRO-Orange dye stock from the manufacturer. Excitation and emission filters of the dye were set at 450–490 nm and 560–580 nm, respectively. The temperature for the reaction was held at 25 °C for 5 min, and then a gradient of 25 °C to 95 °C was applied at a rate of 0.3 °C/min, and the fluorescence was recorded. To determine Tm of the protein, the first derivatives of melting curves were plotted using GraphPad Prism software, version 10.0.3.

Neuropilin-1 (NRP-1) = molecular target: T1, Neuropilin-1 (NRP-1) (Homo sapiens, UniProt O14786); test: Surface plasmon resonance (SPR); type: binding; conditions: NRP-1 immobilized on NTA chip, steady-state affinity model, peptides 500 μM to 3.90 μM, n=3, 4 replicates, read-out: dissociation constant (KD) for NRP-1
T1 construct: containing amino acid residues Phe22-Lys644, with a poly-histidine tag at the C-terminus; purchased ACROBiosystems NR1-H5228
T1 sequence (O14786 22-644 isoform O14786-2): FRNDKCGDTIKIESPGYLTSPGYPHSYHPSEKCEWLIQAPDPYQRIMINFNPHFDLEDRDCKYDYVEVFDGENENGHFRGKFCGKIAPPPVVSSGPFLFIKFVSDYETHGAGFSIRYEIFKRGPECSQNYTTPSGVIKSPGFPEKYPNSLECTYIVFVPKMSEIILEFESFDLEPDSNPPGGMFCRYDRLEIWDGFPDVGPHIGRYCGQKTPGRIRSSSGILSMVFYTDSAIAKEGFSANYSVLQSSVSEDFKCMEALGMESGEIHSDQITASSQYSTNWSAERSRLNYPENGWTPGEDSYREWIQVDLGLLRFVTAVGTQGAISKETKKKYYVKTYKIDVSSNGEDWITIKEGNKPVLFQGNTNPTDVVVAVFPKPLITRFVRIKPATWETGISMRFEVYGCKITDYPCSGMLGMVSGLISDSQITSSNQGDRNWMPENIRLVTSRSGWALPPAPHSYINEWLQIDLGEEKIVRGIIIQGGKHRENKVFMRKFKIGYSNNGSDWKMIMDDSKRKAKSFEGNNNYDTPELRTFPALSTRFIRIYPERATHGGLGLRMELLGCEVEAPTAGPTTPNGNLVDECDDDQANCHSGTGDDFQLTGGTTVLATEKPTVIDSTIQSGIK
Protocol: (§1) Surface plasmon resonance (SPR) reagents, plates, and the NTA chip were purchased from GE Healthcare Life Sciences, now Cytiva (Marlborough, MA, USA). Measurements were performed using the Biacore 8000 SPR System (Marlborough, MA. USA). The running buffer used for protein immobilization and peptide binding consisted of 20 mM Tris, 150 mM NaCl, […] and 0.0005% Tween-20, adjusted to pH 7.4. MMP-2 and NRP-1 were immobilized onto the NTA chip at 15 nM and 25 nM concentration, respectively. Peptides were injected over the immobilized proteins using two-fold serial dilutions from 500 μM to 3.90 μM. Three experiments with four replicates of each were performed. The SPR response curves generated from the Biacore Insight Evaluation Software were fitted to a steady-state affinity model to obtain an equilibrium dissociation constant (KD) for each peptide — protein interaction.

MMP-2 [2] = test: Surface plasmon resonance (SPR); type: binding, human; conditions: MMP-2 immobilized on NTA chip; peptides 500 μM to 3.90 μM; pH 7.4
Protocol: as §1

[3] = peptides at 1 μM, 50 μM and 100 μM, quenched fluorogenic substrate, one-way ANOVA

Substance | inhibition of U-87MG cell migration (U87MG glioblastoma cells) | inhibition of MMP-2 enzymatic activity (MMP-2 [1]; [3]) | Change in melting temperature ΔTm ± SD (recombinant MMP-2) | Kd (Neuropilin-1 (NRP-1)) | inhibition of MMP-2 enzymatic activity (MMP-2 [1]; Ctx at 1 μM, 5 μM, 10 μM, 15 μM and 20 μM, quenched fluorogenic substrate OmniMMP RED) | binding to MMP-2 by SPR (MMP-2 [2])
Ac-[Cyc(28,33)]Ctx(27-34)-NH2 [Peptide P78] | about 30% | not statistically significant | – | – | – | –
Ac-[Cys^26,Ser^28,33,Cyc(26,35)]Ctx(24-36)-NH2 [Peptide P76] | – | not statistically significant | 0.63 ± 0.36 °C | – | – | –
Ac-[Ser^35,Cyc(28,33)]Ctx(24-36)-NH2 [Peptide P75] | Inhibition of U-87MG cell migration | not statistically significant | 0.76 ± 1.56 °C | 330 ± 146 µM | – | –
Chlorotoxin [Ctx, reference compound] | – | not statistically significant | – | – | did not inhibit MMP-2 activity | did not bind
